Active and inactive are the calls of the source.
How the values were obtained:
Format in all cases: functional, cell-based
SW480 = experiment: Cytotoxicity against human SW480 cells at 50 uM after 90 mins by MTS assay
HeLa = experiment: Cytotoxicity against human HeLa cells at 50 uM after 90 mins by MTS assay
A549 = experiment: Cytotoxicity against human A549 cells at 50 uM after 90 mins by MTS assay
MCF7 = experiment: Cytotoxicity against human MCF7 cells at 50 uM after 90 mins by MTS assay
T-24 = experiment: Cytotoxicity against human T24 cells at 50 uM after 90 mins by MTS assay
HCT-116 = experiment: Cytotoxicity against human HCT116 cells at 50 uM after 90 mins by MTS assay

Measured: Activity

COc1cc2c3c4c(c(O)cc(C)c14)C(=O)O[C@@H]3[C@@H]1C[C@@H](C)O[C@]1(C[C@H]1CCC(=O)O1)O2
inactive: all assays above

Reference: ChEMBL document CHEMBL3588825, “Identification of Oxaphenalenone Ketals from the Ascomycete Fungus Neonectria sp” (J Nat Prod, 2015)
